# Measured values published in publication PMC4926326, “Synthesis, Biological Activity, and Apoptotic Properties of NO-Donor/Enmein-Type ent-Kauranoid Hybrids” (International Journal of Molecular Sciences, 2016).
# Where two headings read alike, the source gives them in different places.
# Assays:
# [1] = system: CaEs-17 esophageal cancer cell line; test: MTT antiproliferative assay; assay type: cell-based; conditions: Homo sapiens, read-out: IC50 CaEs-17
# Procedure: (§1) The antiproliferative activity of 9a–i against four human cancer cell lines K562 leukemia cell line, MGC-803 gastric cancer cell line, CaEs-17 esophageal cancer cell line, and Bel-7402 hepatoma cell line, and human normal liver cells L-02 was evaluated by MTT assay (Table 2).
# (§2) MTT assay was developed to monitor mammalian cell survival and proliferation in vitro [32]. CaEs-17 cells (K562, Bel-7402 and MGC-803 cells) from American Type Culture Collection (ATCC, Manassas, VA, USA) were cultivated in RPMI-1640 medium supplemented with 5% fetal bovine serum (v/v), 100 U/mL penicillin, and […] streptomycin. Cells (5 × 10^4 cell/mL) at the log phase of their growth cycle were added to each well of a 96-well plate (100 µL/well) and incubated for 24 h at 37 °C in a humidified atmosphere of 5% CO2. Then, cells were treated with or without test compounds in different concentrations. After 72 h, 5 mg/mL MTT solution (20 µL per well) was added. Cells were incubated at 37 °C. After 4 h, MTT solution was removed and DMSO was added to each well (150 µL). Ten minutes later at room temperature, the optical density (OD) values were measured at the wavelength of 490 nm on a Microplate Reader NO. 550 (BIO-RAD Instruments Inc., Hercules, CA, USA). In this experiment, 10 µg/mL of Taxol was used as the positive control and 0.1% DMSO was used as the negative reference.
# [2] = system: human normal liver cells L-02; test: MTT assay on normal cells; assay type: cell-based; conditions: 72 h, read-out: IC50 L-02
# Procedure: as §1, §2
# [3] = system: K562 leukemia cell line; test: MTT antiproliferative assay; assay type: cell-based, human; conditions: read-out: IC50 K562
# Procedure: as §1, §2
# [4] = system: MGC-803 gastric cancer cell line; test: MTT antiproliferative assay; assay type: cell-based, human; conditions: read-out: IC50 MGC-803
# Procedure: as §1, §2
# [5] = system: Bel-7402 hepatoma cell line; test: MTT antiproliferative assay; assay type: cell-based, human; conditions: for IC50: Homo sapiens, read-out: IC50 Bel-7402; for SI (selectivity index): SI = IC50, L-02/IC50, Bel-7402
# Procedure: as §1, §2
# [6] = system: Bacillus subtilis (CMCC 63501); test: Antibacterial assay, microbroth dilution MIC; assay type: cell-based; conditions: for MIC: Bacillus subtilis, read-out: MIC B. subtilis
# From the text: (§3) The antibacterial activity of NO donor/enmein-type ent-kauranoid hybrids 9a–i against the Gram-negative bacterium Escherichia coli (ATCC 25922), Gram-positive bacterium Staphylococcus aureus (ATCC 29213) and Bacillus subtilis (CMCC 63501), and the fungus Monilia albicans (ATCC 10231) was first disclosed and summarized in Table 1. […] Thus, the introduction of NO-donor substituent groups at the 14-position of enmein-type 6,7-seco-ent-kauranoid could improve antimicrobial activity against S. aureus and B. subtilis.
# (§4) The minimal inhibitory concentrations (MICs) were carried out by microbroth dilution method described by the Clinical Laboratory Standards Institute. A stock solution of all the target compounds was prepared with DMSO-medium (1:2), and then graded quantities of the test compounds were diluted with medium. The specified concentration suspension of fungus and bacterium contained approximately 10^3, and 10^5 CFU/mL was added into microtitration plates. The inoculated 96-well plates were incubated at 35 °C for 18 h. MIC was defined as the lowest concentrations that prevented visible growth of the bacteria.
# [7] = system: Escherichia coli (ATCC 25922); test: Antibacterial assay, microbroth dilution MIC; assay type: cell-based; conditions: for MIC: Escherichia coli, read-out: MIC E. coli
# From the text: as §3, §4
# [8] = system: Staphylococcus aureus (ATCC 29213); test: Antibacterial assay, microbroth dilution MIC; assay type: cell-based; conditions: for MIC: Staphylococcus aureus, read-out: MIC S. aureus
# From the text: as §3, §4
# [9] = system: Monilia albicans (ATCC 10231); test: Antifungal assay, microbroth dilution MIC; assay type: cell-based; conditions: Candida albicans, read-out: MIC M. albicans
# From the text: as §3, §4
# [10] = CaEs17, MTT, 72 h, mean ± SD of three experiments
# [11] = MTT, normal liver cells, mean ± SD of three experiments
# [12] = Homo sapiens, K562, 72 h, MTT, 72 h, mean ± SD of three experiments
# [13] = Homo sapiens, MGC-803, 72 h, MTT, 72 h, mean ± SD of three experiments
# [14] = Bel-7402, MTT, 72 h, mean ± SD of three experiments
# [15] = MTT, 72 h, mean ± SD of three experiments
"IC50 [1, 10] [nM]","IC50 [3, 12] [nM]","IC50 [4, 13] [nM]","IC50 [5, 14] [nM]",melting point [°C],"MIC ([6]; CMCC63501, 35 °C, 18 h) [µg/mL]","MIC ([7]; ATCC25922, 35 °C, 18 h) [µg/mL]","MIC ([8]; ATCC29213, 35 °C, 18 h) [µg/mL]","MIC ([9]; ATCC10231, 35 °C, 18 h) [µg/mL]",SMILES,"IC50 [2, 11] [nM]",SI (selectivity index) [5],other results
430 ± 30,410 ± 20,850 ± 60,1890 ± 90,,,,,,"CC(=O)O[C@H]1C(=O)[C@@]2(C)[C@H]([C@H](OC(=O)c3ccccc3)[C@]3(O)C[C@H](OC(=O)[C@H](O)[C@@H](NC(=O)c4ccccc4)c4ccccc4)C(C)=C1C3(C)C)[C@]1(OC(C)=O)CO[C@@H]1C[C@@H]2O [Taxol, reference compound]",3730 ± 170,1.9,
,,,,,,,,,C=C1C(=O)[C@@]23C(=O)O[C@H]4CCC(C)(C)[C@H]5[C@H](O)OC[C@@]45[C@@H]2CC[C@@H]1[C@H]3O [Compound 8],,,"IC50 ([1]; CaEs17, 72 h): 30800 ± 2090 nM; IC50 [2]: 24400 ± 1590 nM; IC50 ([3]; Homo sapiens, K562, 72 h): 8110 ± 760 nM; IC50 ([4]; Homo sapiens, MGC-803, 72 h): 14200 ± 1220 nM; IC50 ([5]; Bel-7402, 72 h): 33000 ± 2190 nM; MIC ([6]; CMCC63501, 18 h): > 100 µg/mL; MIC ([7]; ATCC25922, 18 h): > 100 µg/mL; MIC ([8]; ATCC29213, 18 h): > 100 µg/mL; MIC ([9]; ATCC10231, 18 h): > 100 µg/mL"
3760 ± 370,1930 ± 100,1340 ± 130,830 ± 60,137 to 139,4,> 100,8,> 100,C=C1C(=O)[C@@]23C(=O)O[C@H]4CCC(C)(C)[C@H]5[C@H](O)OC[C@@]45[C@@H]2CC[C@@H]1[C@H]3OC(=O)c1ccccc1C(=O)OCCOc1no[n+]([O-])c1S(=O)(=O)c1ccccc1 [Compound 9c],19870 ± 180,23.9,
,,,,,,,,,"O=C(N[C@H](CO)[C@H](O)c1ccc([N+](=O)[O-])cc1)C(Cl)Cl [Chloromycetin, reference compound]",,,"MIC B. subtilis ([6]; 35 °C, 18 h): 8 µg/mL; MIC E. coli ([7]; 35 °C, 18 h): 4 µg/mL; MIC S. aureus ([8]; 35 °C, 18 h): 4 µg/mL"
4270 ± 350,1920 ± 90,1290 ± 120,920 ± 50,82 to 84,16,> 100,16,> 100,C=C1C(=O)[C@@]23C(=O)O[C@H]4CCC(C)(C)[C@H]5[C@H](O)OC[C@@]45[C@@H]2CC[C@@H]1[C@H]3OC(=O)CCCC(=O)OCCCOc1no[n+]([O-])c1S(=O)(=O)c1ccccc1 [Compound 9e],17200 ± 770,18.6,
3820 ± 190,1250,1860,780 ± 40,126 to 128,2,> 100,16,> 100,C=C1C(=O)[C@@]23C(=O)O[C@H]4CCC(C)(C)[C@H]5[C@H](O)OC[C@@]45[C@@H]2CC[C@@H]1[C@H]3OC(=O)c1ccccc1C(=O)OCCCCOc1no[n+]([O-])c1S(=O)(=O)c1ccccc1 [Compound 9i],14600 ± 860,18.6,"IC50 [3, 15]: 1860 ± 180 nM; IC50 [4, 15]: 1250 ± 100 nM"
11000 ± 1020,4760 ± 320,5690 ± 390,7480 ± 530,,32,> 100,32,> 100,"C=C1C(=O)[C@]23[C@H](O)[C@H]1CC[C@H]2[C@@]12CO[C@]3(O)[C@@H](O)[C@@H]1C(C)(C)CC[C@@H]2O [Compound 7, oridonin, reference compound]",18300 ± 810,2.4,
5120 ± 420,2470 ± 160,1830 ± 160,1330 ± 100,92 to 94,64,> 100,16,> 100,C=C1C(=O)[C@@]23C(=O)O[C@H]4CCC(C)(C)[C@H]5[C@H](O)OC[C@@]45[C@@H]2CC[C@@H]1[C@H]3OC(=O)CCC(=O)OCCOc1no[n+]([O-])c1S(=O)(=O)c1ccccc1 [Compound 9a],10400 ± 610,7.7,
4830 ± 300,2310 ± 210,1620 ± 80,1200 ± 80,88 to 89,2,> 100,4,> 100,C=C1C(=O)[C@@]23C(=O)O[C@H]4CCC(C)(C)[C@H]5[C@H](O)OC[C@@]45[C@@H]2CC[C@@H]1[C@H]3OC(=O)CCCC(=O)OCCOc1no[n+]([O-])c1S(=O)(=O)c1ccccc1 [Compound 9b],16700 ± 170,13.9,
4980 ± 420,2150 ± 120,1500 ± 100,1230 ± 80,110 to 112,2,> 100,4,> 100,C=C1C(=O)[C@@]23C(=O)O[C@H]4CCC(C)(C)[C@H]5[C@H](O)OC[C@@]45[C@@H]2CC[C@@H]1[C@H]3OC(=O)CCC(=O)OCCCOc1no[n+]([O-])c1S(=O)(=O)c1ccccc1 [Compound 9d],13600 ± 1310,11.0,
,,,,,,,,4,"OC(Cn1cncn1)(Cn1cncn1)c1ccc(F)cc1F [Fluconazole, reference compound]",,,
4680 ± 310,2110 ± 160,1490 ± 110,1080 ± 50,78 to 80,16,> 100,16,> 100,C=C1C(=O)[C@@]23C(=O)O[C@H]4CCC(C)(C)[C@H]5[C@H](O)OC[C@@]45[C@@H]2CC[C@@H]1[C@H]3OC(=O)CCCC(=O)OCCCCOc1no[n+]([O-])c1S(=O)(=O)c1ccccc1 [Compound 9h],12100 ± 1080,11.1,
5130 ± 220,2260 ± 80,1430 ± 80,1270 ± 110,85 to 87,16,> 100,16,> 100,C=C1C(=O)[C@@]23C(=O)O[C@H]4CCC(C)(C)[C@H]5[C@H](O)OC[C@@]45[C@@H]2CC[C@@H]1[C@H]3OC(=O)CCC(=O)OCCCCOc1no[n+]([O-])c1S(=O)(=O)c1ccccc1 [Compound 9g],11600 ± 390,9.1,
